Laboratory results reported in patent USRE35801E, “Prophylactic and therapeutic composition for circulatory disorders and method of treatment” (priority 1985, dated 1998).
“And” between values parts separate entries of the source, which are not always exact repeats. Equal entries are not always repeated.

How the values were obtained:
[1] = system: myocardial ischemia (isolated heart, cardiac output); assay: Protective action for myocardial ischemia (isolated perfused working heart); parameters: species or system Wistar strain male rats
Source text: Protective action for myocardial ischemia
When coronary blood flow transporting nutritions to cardiac muscles is interrupted (disorder in blood flow) or recirculated (disorder in recirculation) by a certain cause, cardiac muscles will be damaged (disorder of mycardial ischemia). The degree of such disorder in cardiac muscles will be advanced as the period of ischemia state is prolonged to cause various ischemic cardiac disorders such as the so-called myocardial infarction and cardiac insufficiency.
Accordingly, the protective effect of the Compound No. 1, as a typical compound, on cardiac muscles were examined as described below.
In the experiment, Wistar strain male rats weighing 300 to 400 g were used. The heart was extirpated into a Krebs-Henseleit bicarbonate (KH) solution which had been oxygenated with 95% O2 -5% CO2, under anesthesia by intraperitoneal administration of 50 mg/kg of pentobarbital sodium. Immediately after the isolation, a cannula was intubated into the aorta ascendens, and perfusion was started according to the Langendorff method (75 cm H2 O). Subsequently, the cannula was intubated into the left artium. Then, perfusion in accordance with the Langerdorff method was further conducted for 10 minutes, and then the left artium cannula was opened change the mode of perfusion to that of the working heart method (preload 10 cm H2 O, afterload 80 cm H2 O) (American Journal of Physiology, 212, 804, 1967), which was conducted for 15 minutes. Next, in accordance with the method of Ichihara et al (Journal of Cardiovascular Pharmacology, 5, 745, 1983), the afterload on the aorta was released to provide an ischemic state in the cardiac muscles for 20 minutes. Since five minutes before the initiation of the ischemic state, the perfusate was changed to the one containing the test medicine and such perfusate was used also during the period of the ischemic state. Reperfusion was conducted for 30 minutes with a perfusate containing no test medicine with the afterload of 80 cm H2 O. In order to determine the cardiac functions, coronal perfusion flow (CF), cardiac output (CO), heart rate (HR), aorta pressure (AP) and rate pressure product (HR×AP) were measured. The CF was measured by use of a 10 ml measuring cylinder. The CO was measured through a direct blood flow measuring probe (Model FF-030, 30, produced by Nihon Kohden K.K.) disposed immediately in front of the left artium cannula, by use of an electromagnetic blood flow meter (Model MFV-2100, produced by Nihon Kohden K.K.) and an amplifier for bioelectricity (Mode AB-621G, produced by Nihon Kohden K.K,). The AP was measured through a pressure transducer (Model MPU-0.5, produced by Nihon Kohden K.K.) connected to the aortic cannula, by use of an amplifier for distortion pressure (Model AP-601G, produced by Nihon Kohden K.K.). The HR was measured by use of an cardiotacho meter (Model AT-601G, produced by Nihon Kohden K.K.). The rate pressure product (HR×AP) was calculated by multiplying the HR by the aortic pressure.
As the perfusate, a KH solution, which had been oxygenated with 95% O2 -5% CO2 and heated to 37° C. was used. The formulation of the KH solution (unit: mM) is as follows. NaCl 118, KCl 4.7, CaCl2 2.5, MgSO4 1.2, KH2 PO4 1.2, NaHCO3 25 and glucose 11. […]
Changes in the cardiac functions after treatment with the test medicine and recovery thereof at reperfusion are indicated in terms of percentage based on the value measured before the treatment with the test medicine. […]

[2] = system: cerebral ischemia recirculation model; assay: Protective action in cerebral ischemia recirculation model; format: in vivo, Wistar-strain male rat; parameters: key to Judgement of action: The case when restoration of electroencephalogram is judged as +; case when not recognized as -; settings: 3 mg/kg
rat = rat oral administration; cited from earlier work

In the case of `CC1=NN(c2ccccc2)C(=O)C1` [Compound 1, 3-methyl-1-phenyl-2-pyrazolin-5-one], the “protective action for myocardial ischemia (in words)” value [1] is reported as “exhibits protective action for myocardial ischemia”, the “Recovery of the cardiac output (CO)” value ([1]; 10^-5 M, 30 minutes after reperfusion after 20 min ischemia, N = 5, mean ± standard error (Table 5)) is reported as 23.8 ± 14.6% and the “Recovery of the cardiac functions (CO 50% or more), percentage” value ([1]; 30 minutes after reperfusion) is reported as 40%. For the same compound, the “average recovery action based on the cardiac output (CO)” value ([1]; 30 minutes after reperfusion after 20 min cardiac ischemia) was 24%, the “Number of recovery of the cardiac functions (CO 50% or more)” value ([1]; hearts recovered/total, 30 minutes after reperfusion) was 2/5 and the “Survival time after recirculation, average” value ([2]; average) was 106 min. For the same compound, the Judgement of action ([2]; individual animal) was “+ and -”, the “Survival time after recirculation” value ([2]; individual animal) was 85 min and 126 min and the LD50 (rat) was 3500 mg/kg.
